Assay results as given in patent US6221914A, “Sulfonamide bridging compounds that inhibit tryptase activity” (Array Biopharma Inc., priority 1998, dated 2001).

Columns and labels:
Assay type in all cases: biochemical
[1] = biological target: T1, Bovine pancreatic Trypsin (Bos taurus, UniProt P00760); experiment: Ki determination, bovine pancreatic trypsin (N-a-Benzoyl-L-Arg-pNA); details: 50 mM Tris-HCl, pH 8.2, 20 mM CaCl2; read-out: Experimentally Determined Ki, Trypsin
T1 construct: from tissue; host or cells: bovine pancreas
T1 sequence (P00760 24-246): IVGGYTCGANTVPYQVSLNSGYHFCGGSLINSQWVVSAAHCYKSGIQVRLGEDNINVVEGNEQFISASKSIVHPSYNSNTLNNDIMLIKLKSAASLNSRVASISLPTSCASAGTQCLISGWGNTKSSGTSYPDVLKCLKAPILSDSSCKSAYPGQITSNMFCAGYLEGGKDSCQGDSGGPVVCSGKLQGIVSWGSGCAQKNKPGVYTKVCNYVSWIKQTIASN
Experimental: (§1) Protease inhibition was assayed according to published procedures with minor modifications using various proteases and specific chromogenic peptide p-nitroanilide substrates. Assays were performed in Costar ultra-low cluster 96-well microtiter plate (Costar Corning Corp., Cambridge Mass.). Each protease was incubated with various concentrations of the test compound for 15 min. at 37° C. or as otherwise indicated, in specific assay buffer, and the residual activity was then measured by addition of the substrate. p-Nitroaniline produced by the proteolysis was determined by measuring the change in absorbance at 405 nm on a SpectraMAX 340 plate reader (Molecular devices, Sunnyvale, Calif.).
(§2) 1. The inhibition constant, Ki is calculated from individual data points using the equation for a tight-binding inhibitor (See Beith, "Proteinase Inhibitors-Proceedings of 2nd Int. Res. Conference", Fritz, et al. eds, New York, p.4463-4469 (1974)):
(§3) vi /vo [((Ki '+[I]+[E]o)^2 -4 [I]o
(§4) [E]o)^1/2 (Ki '+[I]o -[E]o)]/2[E]o
(§5) where Ki ' is apparent inhibition constant; vi and vo are the inhibited and uninhibited rates, respectively; [I]o and [E]o are the total concentrations of inhibitor and enzyme, respectively.
(§6) [note: [E]o is determined by active site titration of enzyme]
(§7) The Ki values are obtained by correcting Ki ' values for the effect of substrate concentration according to: [formula]
(§8) 2. Other inhibition data (Ki >>[E]o), the Ki is calculated from using the equations for a competitive inhibitor: [formula]
Bovine pancreatic Trypsin (TPCK-treated) activity was determined by using N-a-Benzoyl-L-Arg-pNA in 50 mM Tris-HCl, pH 8.2, 20 mM CaCl2 (See Somorin, et al., J. Biochem. 85, 157-162 (1979)).
(§9) The inhibition constant (Ki) of the test compounds against each proteolytic enzyme was determined according to Zitnik et al., Biochem. Biophys. Res. Commun. 232, 687-697 (1997)).

[2] = biological target: T2, Human plasma factor Xa (Homo sapiens, UniProt P00742); experiment: Ki determination, human plasma factor Xa (N-Benzoyl-Ile-Glu-Gly-Arg-pNA); details: 50 mM Tris-HCl, pH 7.8, 200 mM NaCl, 0.05% BSA; read-out: Experimentally Determined Ki, Factor Xa
T2 construct: from tissue; host or cells: human plasma
T2 sequence (P00742 235-488 limits assumed): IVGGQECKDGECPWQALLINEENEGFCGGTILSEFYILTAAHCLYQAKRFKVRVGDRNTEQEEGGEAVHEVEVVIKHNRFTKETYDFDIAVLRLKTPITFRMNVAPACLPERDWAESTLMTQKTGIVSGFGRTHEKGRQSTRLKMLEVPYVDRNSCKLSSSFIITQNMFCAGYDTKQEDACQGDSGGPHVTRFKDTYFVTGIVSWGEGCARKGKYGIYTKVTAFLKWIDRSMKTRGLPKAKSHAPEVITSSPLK
T2 sequence (P00742 41-179 partner limits assumed): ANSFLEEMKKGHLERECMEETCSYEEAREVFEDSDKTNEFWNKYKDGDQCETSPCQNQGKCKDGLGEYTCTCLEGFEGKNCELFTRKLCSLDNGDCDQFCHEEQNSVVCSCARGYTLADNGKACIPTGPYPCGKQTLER
Experimental: as §1, §2, §3, §4, §5, §6, §7, §8
Human plasma factor Xa activity was determined by using N-Benzoyl-Ile-Glu-Gly-Arg-pNA in 50 mM Tris-HCl, pH 7.8, 200 mM NaCl, 0.05% BSA (See Lottenberg, et al. Meth. Enzymol. 80, 341-361 (1981)).
as §9

[3] = biological target: r-tissue kallikrein (Homo sapiens, UniProt P06870); experiment: Ki determination, r-tissue kallikrein (DL-Val-Leu-Arg-pNA); details: 50 mM Tris-HCl, pH 7.8, 200 mM NaCl, 0.05% BSA; read-out: Experimentally Determined Ki, Tissue Kallikrein
Sequence of r-tissue kallikrein (P06870 25-262): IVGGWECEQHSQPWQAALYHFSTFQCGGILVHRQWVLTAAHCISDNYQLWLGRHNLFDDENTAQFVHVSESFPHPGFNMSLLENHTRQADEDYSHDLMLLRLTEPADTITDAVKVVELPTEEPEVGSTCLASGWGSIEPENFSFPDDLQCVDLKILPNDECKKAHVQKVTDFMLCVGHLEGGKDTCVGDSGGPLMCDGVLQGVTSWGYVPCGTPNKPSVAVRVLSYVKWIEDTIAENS
Experimental: as §1, §2, §3, §4, §5, §6, §7, §8
(§10) I. Human Plasma and r-Tissue Kallikrein
(§11) Human plasma and r-tissue kallikrein activity were determined in 50 mM Tris-HCl, pH 7.8, 200 mM NaCl, 0.05% BSA by using H-D-Prolyl-Phe-Arg-pNA and DL-Val-Leu-Arg-pNA, respectively (See Lottenberg, et al., Meth. Enzymol. 80, 341-361 (1981)).
as §9

[4] = biological target: T3, Human plasma kallikrein (Homo sapiens, UniProt P03952); experiment: Ki determination, human plasma kallikrein (H-D-Prolyl-Phe-Arg-pNA); details: 50 mM Tris-HCl, pH 7.8, 200 mM NaCl, 0.05% BSA; read-out: Experimentally Determined Ki, Plasma Kallikrein
T3 construct: from tissue; host or cells: human plasma
T3 sequence (P03952 391-638 limits assumed): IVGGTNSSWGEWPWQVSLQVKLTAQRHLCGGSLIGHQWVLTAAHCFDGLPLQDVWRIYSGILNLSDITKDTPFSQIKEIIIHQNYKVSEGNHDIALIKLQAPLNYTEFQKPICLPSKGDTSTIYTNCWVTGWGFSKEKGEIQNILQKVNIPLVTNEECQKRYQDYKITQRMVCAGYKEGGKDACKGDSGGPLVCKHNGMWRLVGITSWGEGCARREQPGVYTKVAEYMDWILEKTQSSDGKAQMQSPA
T3 sequence (P03952 20-390 partner limits assumed): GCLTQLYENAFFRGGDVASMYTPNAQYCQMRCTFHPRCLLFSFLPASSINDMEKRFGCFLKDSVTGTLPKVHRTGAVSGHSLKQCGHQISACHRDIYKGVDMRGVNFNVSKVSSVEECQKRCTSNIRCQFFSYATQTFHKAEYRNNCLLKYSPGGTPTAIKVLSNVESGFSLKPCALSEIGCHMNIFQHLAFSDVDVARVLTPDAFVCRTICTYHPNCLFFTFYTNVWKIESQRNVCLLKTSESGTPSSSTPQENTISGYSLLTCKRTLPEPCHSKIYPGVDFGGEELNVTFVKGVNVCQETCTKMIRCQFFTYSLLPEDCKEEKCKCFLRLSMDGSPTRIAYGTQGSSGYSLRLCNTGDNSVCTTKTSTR
Experimental: as §1, §2, §3, §4, §5, §6, §7, §8, §10, §11, §9

[5] = biological target: T4, Human plasma plasmin (Homo sapiens, UniProt P00747); experiment: Ki determination, human plasma plasmin (Tosyl-Gly-Pro-Lys-pNA); details: 100 mM Tris-HCl, pH 7.4, 100 mM NaCl, 0.05% Triton X-100; read-out: Experimentally Determined Ki, Plasmin
T4 construct: from tissue; host or cells: human plasma
T4 sequence (P00747 581-810 limits assumed): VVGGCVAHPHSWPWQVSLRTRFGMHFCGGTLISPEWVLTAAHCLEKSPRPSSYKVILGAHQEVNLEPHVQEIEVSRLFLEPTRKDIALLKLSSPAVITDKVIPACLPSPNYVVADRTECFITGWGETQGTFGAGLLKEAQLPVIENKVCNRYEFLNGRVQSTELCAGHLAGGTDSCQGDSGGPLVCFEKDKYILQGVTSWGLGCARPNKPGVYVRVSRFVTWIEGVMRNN
T4 sequence (P00747 97-580 partner limits assumed): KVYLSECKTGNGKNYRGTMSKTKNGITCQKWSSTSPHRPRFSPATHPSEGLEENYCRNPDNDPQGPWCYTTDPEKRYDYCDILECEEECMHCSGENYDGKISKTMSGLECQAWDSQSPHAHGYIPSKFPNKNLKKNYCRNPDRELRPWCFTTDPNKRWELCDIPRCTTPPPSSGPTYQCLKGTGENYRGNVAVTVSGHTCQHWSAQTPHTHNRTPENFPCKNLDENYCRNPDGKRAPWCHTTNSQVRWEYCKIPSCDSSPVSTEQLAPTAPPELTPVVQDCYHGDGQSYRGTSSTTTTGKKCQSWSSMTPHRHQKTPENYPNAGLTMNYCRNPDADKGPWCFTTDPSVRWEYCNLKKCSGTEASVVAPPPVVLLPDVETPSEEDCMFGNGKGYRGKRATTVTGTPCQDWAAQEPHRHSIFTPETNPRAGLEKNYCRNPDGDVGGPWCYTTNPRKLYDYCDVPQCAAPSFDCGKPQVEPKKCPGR
Experimental: as §1, §2, §3, §4, §5, §6, §7, §8
Human plasma plasmin activity was determined by using Tosyl-Gly-Pro-Lys-pNAin 100 mM Tris-HCl, pH 7.4, 100 mM NaCl, 0.05% Triton X-100 (See Lottenberg, et al., Meth. Enzymol. 80, 341-361 (1981)).
as §9

[6] = biological target: T5, Human Neutrophil elastase (Homo sapiens, UniProt P08246); experiment: Ki determination, human neutrophil elastase (pyroGlu-Pro-Val-pNA); details: 100 mM Tris-HCl, pH 8.3, 0.96 M NaCl, 1% BSA; read-out: Experimentally Determined Ki, Elastase
T5 construct: from tissue; host or cells: human neutrophils
T5 sequence (P08246 30-267): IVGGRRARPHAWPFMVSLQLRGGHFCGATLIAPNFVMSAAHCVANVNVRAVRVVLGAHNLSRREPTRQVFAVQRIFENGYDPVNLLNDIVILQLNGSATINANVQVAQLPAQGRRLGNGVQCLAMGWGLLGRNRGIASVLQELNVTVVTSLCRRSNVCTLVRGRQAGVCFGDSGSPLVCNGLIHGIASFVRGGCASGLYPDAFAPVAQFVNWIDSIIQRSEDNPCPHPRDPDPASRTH
Experimental: as §1, §2, §3, §4, §5, §6, §7, §8
Human Neutrophil elastase activity was determined by using pyroGlu-Pro-Val-pNA in 100 mM Tris-HCl, pH 8.3, 0.96 M NaCl, 1% BSA (See Kramps, et al. Scand. J. Clin. Lab. Invest. 43, 427-432 (1983)).
as §9

[7] = biological target: T6, Human Neutrophil Cathepsin G (Homo sapiens, UniProt P08311); experiment: Ki determination, human neutrophil cathepsin G (N-Suc-Ala-Ala-Pro-Phe-pNA); details: 625 mM Tris-HCl, pH 7.5, 2.5 mM MgCl2, 0.125% Brij 35; read-out: Experimentally Determined Ki, Cathepsin G
T6 construct: from tissue; host or cells: human neutrophils
T6 sequence (P08311 21-255): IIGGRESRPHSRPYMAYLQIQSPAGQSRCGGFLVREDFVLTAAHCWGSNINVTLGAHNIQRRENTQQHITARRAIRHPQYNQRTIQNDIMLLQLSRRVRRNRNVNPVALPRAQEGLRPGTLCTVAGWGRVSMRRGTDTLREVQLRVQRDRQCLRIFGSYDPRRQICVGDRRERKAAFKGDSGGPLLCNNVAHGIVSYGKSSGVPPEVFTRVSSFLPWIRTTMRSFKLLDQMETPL
Experimental: as §1, §2, §3, §4, §5, §6, §7, §8
Human Neutrophil Cathepsin G activity was determined by using N-Suc-Ala-Ala-Pro-Phe-pNA in 625 mM Tris-HCl, pH 7.5, 2.5 mM MgCl2, 0.125% Brij 35 (See Groutas et al., Arch. Biochem. Biophys. 294, 144-146 (1992)).
as §9

Row | Compound | Ki [1] | Ki [2] | Ki [3] | Ki [4] | Ki [5] | Ki [6] | Ki [7]
1 | N=C(N)c1cccc(C(=O)NCc2ccc(OCCCCCOc3ccc(CNC(=O)c4cccc(C(=N)N)c4)cc3)cc2)c1 [Example 55, 1,5-Bis-{4-[(3-carbamimidoyl-benzenecarbonylamino)-methyl]-phenoxy}-pentane] | 0.9 µM | 1.8 µM | > 100 µM | 11 µM | 7.6 µM | > 100 µM | > 100 µM
2 | N=C(N)c1ccc(C(=O)NCc2ccc(OCCCCCCOc3ccc(CNC(=O)c4ccc(C(=N)N)cc4)cc3)cc2)cc1 [Example 56, 1,6-Bis-{4-[(4-carbamimidoyl-benzenecarbonylamino)-methyl]-phenoxy}-hexane] | 1.3 µM | – | > 100 µM | – | 1.6 µM | > 100 µM | > 100 µM
3 | N=C(N)c1cccc(S(=O)(=O)NCc2ccc(OCCCCCOc3ccc(CNS(=O)(=O)c4cccc(C(=N)N)c4)cc3)cc2)c1 [Example 41, 1,5-Bis-{4-[(3-carbamimidoyl-benzenesulfonylamino)-methyl]-phenoxy}-pentane] | 2.5 µM | 6.4 µM | > 100 µM | 18 µM | 0.93 µM | > 100 µM | > 100 µM
4 | N=C(N)c1ccc(C(=O)NCc2ccc(OCCCOc3ccc(CNS(=O)(=O)c4cccc(C(=N)N)c4)cc3)cc2)cc1 [Example 86, 4-Carbamimidoyl-N-[4-(3-{4-[(3-carbamimidoyl-benzenesulfonylamino)-methyl]-phenoxy}-propoxy)-benzyl]-benzamide] | 2.1 µM | 10 µM | > 100 µM | 1.4 µM | 0.34 µM | > 100 µM | > 100 µM
5 | N=C(N)c1ccc2sc(C(=O)NCc3ccc(OCCCOc4ccc(CNC(=O)c5cc6cc(C(=N)N)ccc6s5)cc4)cc3)cc2c1 [Example 117, 1,3-Bis-{4-[(5-carbamidoyl-2-benzthiophenyl-carbamido)-methyl]-phenoxy}-propane] | 13 µM | 59 µM | > 100 µM | > 100 µM | 50 µM | > 100 µM | > 100 µM
6 | N=C(N)c1ccc(S(=O)(=O)NCc2ccc(OCCCOc3ccc(CNS(=O)(=O)c4ccc(C(=N)N)cc4)cc3)cc2)cc1 [Example 50, 1,3-Bis-{4-[(4-carbamimidoyl-benzenesulfonylamino)-methyl]-phenoxy}-propane] | – | > 100 µM | > 100 µM | > 100 µM | 6.1 µM | > 100 µM | > 100 µM

The next lines start with the values.

Row | Ki [1] | Ki [2] | Ki [3] | Ki [4] | Ki [5] | Ki [6] | Ki [7] | Compound
7 | 0.51 µM | 25.7 µM | > 100 µM | 0.7 µM | 10.1 µM | > 100 µM | – | N=C(N)c1ccc(C(=O)NCc2ccc(COCc3ccc(CNC(=O)c4ccc(C(=N)N)cc4)cc3)cc2)cc1 [Example 66, 1,3-Bis-{4-[(4-carbamimidoyl-benzenecarbonylamino)-methyl]-phenyl}-2-oxapropane]
8 | 0.83 µM | > 100 µM | 5 µM | 2.8 µM | > 100 µM | > 100 µM | > 100 µM | N=C(N)c1ccc(C(=O)NCc2cccc(OCCCCCOc3cccc(CNC(=O)c4ccc(C(=N)N)cc4)c3)c2)cc1 [Example 76, 1,5-Bis-{3-[(4-carbamimidoyl-benzenecarbonylamino)-methyl]-phenoxy}-pentane]
9 | 2.4 µM | – | > 100 µM | – | 28 µM | > 100 µM | > 100 µM | N=C(N)c1cccc(C(=O)NCc2ccc(OCCCOc3ccc(CNC(=O)c4cccc(C(=N)N)c4)cc3)cc2)c1 [Example 63, 1,3-Bis-{4-[(3-carbamimidoyl-benzoylamino)-methyl]-phenoxy}-propane]
10 | 1.5 µM | 20 µM | > 100 µM | 46 µM | 3.8 µM | > 100 µM | > 100 µM | N=C(N)c1ccc(C(=O)NCc2ccc(OCCCCCCCOc3ccc(CNC(=O)c4ccc(C(=N)N)cc4)cc3)cc2)cc1 [Example 58, 1,7-Bis-{4-[(4-carbamimidoyl-benzenecarbonylamino)-methyl]-phenoxy}-heptane]
11 | 1.2 µM | 1 µM | > 100 µM | 7.7 µM | 6 µM | > 100 µM | > 100 µM | N=C(N)c1cccc(C(=O)NCc2ccc(OCCCCOc3ccc(CNC(=O)c4cccc(C(=N)N)c4)cc3)cc2)c1 [Example 61, 1,4-Bis-{4-[(3-carbamimidoyl-benzenecarbonylamino)-methyl]-phenoxy}-butane]
12 | 2.8 µM | 19 µM | > 100 µM | 3.5 µM | 7.6 µM | > 100 µM | > 100 µM | N=C(N)c1ccc(C(=O)NCc2ccc(OCCCOc3ccc(CNC(=O)c4ccc(CN)cc4)cc3)cc2)cc1 [Example 87, N-[4-(3-{4-[(4-Aminomethyl-benzoylamino)-methyl]-phenoxy}-propoxy)-benzyl]-4-carbamimidoyl-benzamide]
13 | 1.7 µM | – | > 100 µM | – | 10.7 µM | > 100 µM | > 100 µM | N=C(N)c1cccc(C(=O)NCc2ccc(OCCCCCCOc3ccc(CNC(=O)c4cccc(C(=N)N)c4)cc3)cc2)c1 [Example 57, 1,6-Bis-{4-[(3-carbamimidoyl-benzenecarbonylamino)-methyl]-phenoxy}-hexane]
